Measurements: patent publication US8455475B2 (Gruenenthal GmbH, priority 2009, dated 2013)

Legend:
[1] = target: T1, rat B1R (bradykinin receptor 1) (Rattus norvegicus, UniProt P97583); test: FLIPR Ca2+ assay (Fluo-4) on CHO K1 cells stably transfected with the B1R gene of the rat (rB1R cells): % inhibition at 10 μM / IC50, agonist Des-Arg9-bradykinin; assay type: cell-based; settings: CHO-K1, rat B1R
T1 construct: expressed in transfected cells; host or cells: CHO K1 cells
T1 sequence (P97583 1-337): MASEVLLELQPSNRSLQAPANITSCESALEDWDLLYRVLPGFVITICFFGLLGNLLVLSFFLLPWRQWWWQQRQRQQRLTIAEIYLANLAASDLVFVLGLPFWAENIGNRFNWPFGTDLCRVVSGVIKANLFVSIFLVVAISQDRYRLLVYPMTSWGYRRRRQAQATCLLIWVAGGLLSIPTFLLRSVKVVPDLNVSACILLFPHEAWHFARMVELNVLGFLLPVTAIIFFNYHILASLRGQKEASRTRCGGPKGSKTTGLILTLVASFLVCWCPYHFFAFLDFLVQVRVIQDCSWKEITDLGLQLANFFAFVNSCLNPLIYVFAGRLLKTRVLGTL
How it was run: (§1)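 Cells were Fluo-4-loaded, then test compound (10 μM, or a concentration series for IC50) was preincubated 10–20 min before agonist challenge at EC80: Lys-Des-Arg9-bradykinin for hB1R, Des-Arg9-bradykinin for rB1R. Peak Ca2+ fluorescence (ex 488/em 540 nm) gave % inhibition versus maximal achievable inhibition.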

[2] = target: T2, human B1R (bradykinin receptor 1) (Homo sapiens, UniProt P46663); test: FLIPR Ca2+ assay (Fluo-4) on CHO K1 cells stably transfected with the human B1R gene (hB1R cells): % inhibition at 10 μM / IC50, agonist Lys-Des-Arg9-bradykinin; assay type: cell-based; settings: CHO-K1, human B1R
T2 construct: expressed in transfected cells; host or cells: CHO K1 cells
T2 sequence (P46663 1-353): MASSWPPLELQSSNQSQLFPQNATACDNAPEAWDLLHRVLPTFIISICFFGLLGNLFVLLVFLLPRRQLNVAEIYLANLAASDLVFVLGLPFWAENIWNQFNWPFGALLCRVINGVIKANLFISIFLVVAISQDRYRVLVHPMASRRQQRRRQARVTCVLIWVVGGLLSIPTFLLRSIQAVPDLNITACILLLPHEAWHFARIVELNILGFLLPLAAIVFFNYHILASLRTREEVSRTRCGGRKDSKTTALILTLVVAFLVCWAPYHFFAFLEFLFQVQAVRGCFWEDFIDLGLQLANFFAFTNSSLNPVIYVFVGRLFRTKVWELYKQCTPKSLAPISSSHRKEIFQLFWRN
How it was run: as §1

SMILES | inhibition at 10 µM [1] | inhibition at 10 µM [2]
O=C(N[C@@H]1CCc2cc(F)c(C(=O)N3CCC4(CC3)CCN(c3ccncc3)C4)cc21)c1ccccc1Cl [Example H-89, 2-Chloro-N-[(1R)-5-fluoro-6-(3-pyridin-4-yl-3,8-diazaspiro[4.5]decane-8-carbonyl)-2,3-dihydro-1H-inden-1-yl]-benzamide] | 103% | 99%
CN(C(=O)c1ccc(Cl)cc1Cl)C1CCc2ccc(C(=O)N3CCC4(CC3)CCN(c3ccncc3)CC4)cc21 (stereo not shown) [Ind_CC-018, 2,4-dichloro-N-methyl-N-[6-(9-pyridin-4-yl-3,9-diazaspiro[5.5]undecane-3-carbonyl)-2,3-dihydro-1H-inden-1-yl]-benzamide] | 98% | 98%
O=C(N[C@@H]1CCc2ccc(C(=O)N3CCC4(CCCN(c5ccncc5)C4)CC3)cc21)c1ccccc1Cl [Example H-26, 2-chloro-N-[(1R)-6-(8-pyridin-4-yl-3,8-diazaspiro[5.5]undecane-3-carbonyl)-2,3-dihydro-1H-inden-1-yl]-benzamide] | 101% | 46%
O=C(NC1CCc2ccc(C(=O)N3CCC4(CC3)CCN(c3ccncc3)CC4)cc21)c1c(Cl)cccc1C(F)(F)F (stereo not shown) [IND_CC-204, 2-Chloro-N-[6-(9-pyridin-4-yl-3,9-diazaspiro[5.5]undecane-3-carbonyl)-2,3-dihydro-1H-inden-1-yl]-6-(trifluoromethyl)-benzamide] | 102% | 99%
O=C(c1ccc2c(c1)[C@H](NS(=O)(=O)c1ccccc1Cl)CCC2)N1CCC2(CCN(c3ccncc3)CC2)C1 [Example H-106, 2-Chloro-N-[(1R)-7-(8-pyridin-4-yl-3,8-diazaspiro[4.5]decane-3-carbonyl)-1,2,3,4-tetrahydro-naphthalen-1-yl]-benzenesulfonic acid amide] | 105% | 100%
O=C(N[C@@H]1CCOc2c(F)cc(C(=O)N3CCC4(CCN(c5ccncc5)CC4)C3)cc21)c1ccccc1Cl [Example H-73, 2-Chloro-N-[(4R)-8-fluoro-6-(8-pyridin-4-yl-3,8-diazaspiro[4.5]decane-3-carbonyl)-3,4-dihydro-2H-chromen-4-yl]-benzamide] | 103% | 100%
COc1cc(C)c(C(=O)NC2CCc3ccc(C(=O)N4CCC5(CC4)CCN(c4ccc(F)cc4)CC5)cc32)c(C)c1 (stereo not shown) [Ind_CC-091, N-[6-[9-(4-fluorophenyl)-3,9-diazaspiro[5.5]undecane-3-carbonyl]-2,3-dihydro-1H-inden-1-yl]-4-methoxy-2,6-dimethyl-benzamide] | 50% | 24%
O=C(NC1CCc2ccc(C(=O)N3CCC4(CCN(c5ccc6cnccc6c5)CC4)C3)cc21)c1ccccc1Cl (stereo not shown) [Example H-50, 2-chloro-N-[6-(8-isoquinolin-6-yl-3,8-diazaspiro[4.5]decane-3-carbonyl)-2,3-dihydro-1H-inden-1-yl]-benzamide] | 98% | 98%
O=C(NC1CCc2ccc(C(=O)N3CCC4(CCC(n5ccnc5)CC4)CC3)cc21)c1ccccc1Cl (stereo not shown) [Example H-131, 2-Chloro-N-[6-[9-(1H-imidazol-1-yl)-3-azaspiro[5.5]undecane-3-carbonyl]-2,3-dihydro-1H-inden-1-yl]-benzamide] | 102% | 74%
O=C(N[C@@H]1CCCc2ccc(C(=O)N3CCC4(CC3)CCN(c3ccncc3)CC4)cc21)c1ccccc1Cl [Example H-09, 2-chloro-N-[(1R)-7-(9-pyridin-4-yl-3,9-diazaspiro[5.5]undecane-3-carbonyl)-1,2,3,4-tetrahydro-naphthalen-1-yl]-benzamide] | 102% | 100%
O=C(NC1CCc2ccc(C(=O)N3CCC4(CCN(c5cc[n+]([O-])cc5)CC4)C3)cc21)c1ccccc1Cl (stereo not shown) [Example H-129, 2-Chloro-N-[6-[8-(1-oxido-pyridin-1-ium-4-yl)-3,8-diazaspiro[4.5]decane-3-carbonyl]-2,3-dihydro-1H-inden-1-yl]-benzamide] | 102% | 100%
O=C(NCc1ccccc1Cl)NC1CCc2ccc(C(=O)N3CCC4(CCN(c5ccncc5)CC4)C3)cc21 (stereo not shown) [Ind_CC-086, 1-[(2-chlorophenyl)-methyl]-3-[6-(8-pyridin-4-yl-2,8-diazaspiro[4.5]decane-2-carbonyl)-2,3-dihydro-1H-inden-1-yl]-urea] | 99% | 100%

Second part, the molecule after the results:

inhibition at 10 µM [1] | inhibition at 10 µM [2] | SMILES
103% | 100% | O=C(c1ccc2c(c1)C(N(C(=O)c1ccccc1Cl)C1CC1)CC2)N1CCC2(CCN(c3ccncc3)CC2)C1 (stereo not shown) [Ind_CC-118, 2-chloro-N-cyclopropyl-N-[6-(8-pyridin-4-yl-2,8-diazaspiro[4.5]decane-2-carbonyl)-2,3-dihydro-1H-inden-1-yl]-benzamide]
101% | 94% | CC1(C)Cc2ccc(C(=O)N3CCC4(CC3)CCN(c3ccncc3)CC4)cc2C1NS(=O)(=O)CCc1ccccc1Cl (stereo not shown) [IND_CC-242, 2-(2-Chlorophenyl)-N-[2,2-dimethyl-6-(9-pyridin-4-yl-3,9-diazaspiro[5.5]-undecane-3-carbonyl)-1,3-dihydro-inden-1-yl]-ethanesulfonic acid amide]
103% | 46% | O=C(NC1CCCCc2ccc(C(=O)N3CCC4(CC3)CCN(c3cccnc3)CC4)cc21)c1ccccc1Cl (stereo not shown) [Ind_CC-121, 2-chloro-N-[3-(9-pyridin-3-yl-3,9-diazaspiro[5.5]undecane-3-carbonyl)-6,7,8,9-tetrahydro-5H-benzocyclohepten-5-yl]-benzamide]
101% | 100% | CC1(C)CC(NC(=O)c2ccccc2C(F)(F)F)c2cc(C(=O)N3CCC4(CC3)CCN(c3ccncc3)CC4)ccc21 (stereo not shown) [Ind_CC-058, N-[3,3-dimethyl-6-(9-pyridin-4-yl-3,9-diazaspiro[5.5]undecane-3-carbonyl)-1,2-dihydro-inden-1-yl]-2-(trifluoromethyl)-benzamide]
104% | 100% | O=C(N[C@@H]1CCCc2cc(F)c(C(=O)N3CCC4(CCN(c5ccncc5)CC4)C3)cc21)c1ccccc1Cl [Example H-82, 2-Chloro-N-[(1R)-6-fluoro-7-(8-pyridin-4-yl-3,8-diazaspiro[4.5]decane-3-carbonyl)-1,2,3,4-tetrahydro-naphthalen-1-yl]-benzamide]
81% | 62% | CC1(C)CC(NC(=O)c2ccccn2)c2cc(C(=O)N3CCC4(CC3)CCN(c3ccncc3)CC4)ccc21 (stereo not shown) [Ind_CC-052, N-[3,3-dimethyl-6-(9-pyridin-4-yl-3,9-diazaspiro[5.5]undecane-3-carbonyl)-1,2-dihydro-inden-1-yl]-pyridine-2-carboxylic acid amide]
104% | 100% | O=C(NC1CCc2ccc(C(=O)N3CCC4(CC3)CCN(c3ccncc3)C4)cc21)c1cc(F)ccc1Cl (stereo not shown) [IND_CC-221, 2-Chloro-5-fluoro-N-[6-(2-pyridin-4-yl-2,8-diazaspiro[4.5]decane-8-carbonyl)-2,3-dihydro-1H-inden-1-yl]-benzamide]
100% | 2% | O=C(NC1CCc2ccc(C(=O)N3CCC4(CCN(Cc5ccc[nH]5)CC4)CC3)cc21)c1ccccc1Cl (stereo not shown) [IND_CC-507, 2-Chloro-N-[6-[9-(1H-pyrrol-2-yl-methyl)-3,9-diazaspiro[5.5]undecane-3-carbonyl]-2,3-dihydro-1H-inden-1-yl]-benzamide]
81% | 35% | O=C(c1cccc2c1CC[C@H]2NS(=O)(=O)c1ccccc1Cl)N1CCC2(CC1)CCN(c1ccncc1)CC2 [Example H-167, 2-Chloro-N-[(1R)-4-(9-pyridin-4-yl-3,9-diazaspiro[5.5]undecane-3-carbonyl)-2,3-dihydro-1H-inden-1-yl]-benzenesulfonic acid amide]
102% | 99% | Cc1cc2c(cc1C(=O)N1CCC3(CC1)CCN(c1ccncc1)CC3)[C@H](NC(=O)c1ccccc1Cl)CC2 [Example H-66, 2-Chloro-N-[(1R)-5-methyl-6-(9-pyridin-4-yl-3,9-diazaspiro[5.5]undecane-3-carbonyl)-2,3-dihydro-1H-inden-1-yl]-benzamide]
104% | 100% | COc1ccc(C(=O)N[C@@H]2CCc3ccc(C(=O)N4CCC5(CCN(c6ccncc6)CC5)C4)cc32)c(Cl)c1 [Example H-63, 2-Chloro-4-methoxy-N-[(1R)-6-(8-pyridin-4-yl-3,8-diazaspiro[4.5]decane-3-carbonyl)-2,3-dihydro-1H-inden-1-yl]-benzamide]
